Assay results: US20110110918A1, “ROLE OF (DE)ACETYLATION IN COUNTERACTING PROTEIN AGGREGATION” (Rijksuniversiteit Groningen, priority 2008, published 2011)
“Also recorded” adds a separate entry of the source.

B1: wild type DnaJB8: member of the Hsp40 family, chaperone counteracting protein aggregation; V5-tagged, tet-inducible overexpression (protein, UniProt Q8NHS0 1-232, looked up)
DnaJ homolog subfamily B …: MANYYEVLGVQASASPEDIKKAYRKLALRWHPDKNPDNKEEAEKKFKLVSEAYEVLSDSKKRSLYDRAGCDSWRAGGGASTPYHSPFDTGYTFRNPEDIFREFFGGLDPFSFEFWDSPFNSDRGGRGHGLRGAFSAGFGEFPAFMEAFSSFNMLGCSGGSHTTFSSTSFGGSSSGSSGFKSVMSSTEMINGHKVTTKRIVENGQERVEVEEDGQLKSVTVNGKEQLKWMDSK
modifications: V5 tag
notes: member of the Hsp40 family, chaperone counteracting protein aggregation; V5-tagged, tet-inducible overexpression

Key:
Type in all cases: cell-based, Human
HDQ119 aggregation = assay: Filter trap assay of HDQ119 aggregation in HEK-293 cells cotransfected with EYFP-HDQ119 and DnaJB6 or DnaJB8; conditions: for ability of DnaJB8 and DnaJB6 to suppress HDQ119 aggregation in presence of HDAC inhibitor: HEK-293 expressing DnaJB6 or DnaJB8 (Tet on), Trichostatin A 100 and 500 nM, Tubacin 3 and 5 μM, Niltubacin 3 and 5 μM
Method: Cell culture and transient infections. Flp-In T-Rex HEK293 cells (Human embryonic kidney 293) stably expressing the tetracycline (tet) repressor were obtained from Invitrogen. Cells were cultured in DMEM (Gibco) supplemented with 10% foetal bovine serum (Sigma) and 100 units/ml penicillin and 100 μg/ml streptomycin (Invitrogen). 5 μg/ml Blasticidine (Sigma) and 100 μg/ml of Zeocin (Invitrogen) were added to the cultures. Cultures were maintained at 37° C. and 5% CO2 in a humidified incubator. For transient transfections, cells were grown to 50-60% confluence in 35 mm-diameter dishes coated with 0.001% of poly-L-lysine (Sigma) and on coated coverslips for confocal microscopy analyses. Cells were transfected with a total of 1 μg of DNA using Lipofectamine (Gibco) according to the manufacturer instructions.
Plasmids. The construction of pHDQ119-EYFP driving the expression of a fragment of exon-1 of huntingtin fused to the enhanced yellow fluorescent protein was previously described (Rujano et al., 2006). The construction of the tetracycline inducible HSP overexpression plasmids is described by Hageman et al. (manuscript in preparation). Briefly, first the V5 sequence containing a Kozak initiation codon and lacking a stop codon was inserted in pcDNA5/FRT/TO by oligo cloning. Subsequently, the coding sequence of each gene was amplified and the PCR products where purified, cleaved with the respective enzymes and ligated in frame in the pcDNA5/FRT/TO-V5 vector cleaved with the same set of enzymes. Presence of the correct insert was verified using DNA sequencing. Expression of the proteins at the expected molecular mass was verified by Western Not analysis against the V5-tag.
(§1) HDAC inhibition. […] Cell extracts prepared 36 hours after treatment were processed for filter trap essays and western Notting as described before. Increase in acetylated tubulin and histones as detected by western Notting was used as test for functionality.
Cell extracts and sample preparation. 24 hours after transfection cells were recovered by trypsinization, pelleted and resuspended in 1 ml of PBS. The cell suspension was centrifuged at 6000 rpm for 5 min at RT and the pellet was resuspended in 75 μl of RIPA buffer containing 2% SDS supplemented with protease inhibitors and sonicated. Protein content was determined with the DC protein essay (Bio-RAD). Western Not samples were prepared at a final concentration of 1 μg/μl in SDS-PAGE loading buffer and heated for 5 min at 100° C. Filter trap samples were prepared at a final concentration of 100 ng/μl, 20 ng/μl and 4 ng/μl in FTA buffer (10 mM Tris-Cl pH 8.0, 150 mM NaCl and 50 mM dithiothreitol)+2% SDS and heated for 5 min at 100° C. Samples were used immediately or kept frozen at −20° C.
Filter trap assay. Filter trap assay was performed based on the protocol described by Carra et al. (2005). Briefly, 10, 2 and 0.4 μg of protein extracts were applied onto a 0.2 μm pore Cellulose Acetate membrane prewashed with FTA+0.1% SDS. Mild suction was applied and the membrane was washed 3 times with the same buffer. […] For quantitative analysis, relative intensity of the bands was measured using GelPro Analyzer 4.5 gel analyzer software.

HDAC-6 = assay: Western blot of acetylated tubulin as test for HDAC inhibitor functionality; conditions: control cells or cells expressing DnaJB8
Method: as §1
Western blot analysis. […] Proteins were transferred onto nitrocellulose membranes and probed with monoclonal anti-GFP antibody GL-8 (Clontech) at a 1:5000 dilution and monoclonal anti-V5 antibody (Invitrogen) at a 1:5000 dilution. GAPDH was used a loading control and was detected with a monoclonal antibody (RDI Research Diagnostics) at 1:1000 dilution. Blots were incubated with HRP-conjugated anti-mouse secondary antibody (Amersham) at 1:5000 dilution, and visualization was made using enhanced chemiluminescence and Hyperfilm (ECL, Amersham).

DNAJB8 = assay: Mass spectrometry of immunoprecipitated DNAJB8 from TSA-treated cells; conditions: TSA-treated cells versus control sample, in-gel digestion
Method: Immunoprecipitation. Cells from a 35 mm dish were washed twice with PBS and lysed in 500 μl RIPA (25 mM Tris-HCl pH 7.6, 150 mM NaCl, 1% NP-40, 1% sodium deoxycholate, 0.1% SDS). Lysis was completed by passing the extracts five times through a 21-gauge needle. Subsequently, cell extracts were centrifuged twice at 10,000 G for 10 minutes at 4° C. and the supernatant transferred. Lysates were cleared with agarose A/G beads for 1 hour at 4° C. in a rotator. In the mean time, 0.5 μg V5 anti-body was incubated with […] agarose A/G plus agarose beads (Santa Cruz Biotechnology) and 50 μl RIPA for 1 hour at 4° C. Thereafter, samples were centrifuged at 1000 g for 30 seconds and the supernatant was transferred to a new tube together with 50 μl of the pre-incubated antibody and incubated for 1 more hour in a rotator. Thereafter, the beads were washed twice with RIPA and twice with PBS. After the final wash, 30 μl of RIPA was added together with 30 μl Laemmli sample buffer and boiled for 5 minutes. 10 μl of the extract was loaded and subjected for Western blot analysis.
Mass Spectometry. […]
The digested material was analyzed by nanoLC-MS/MS on an Ultimate 3000 system (Dionex, Amsterdam, The Netherlands) connected on-line with a LTQ-Orbitrap-XL mass spectrometer (ThermoFisher Scientific, San Jose, Calif.). […]

Molecule	DnaJB8 and DnaJB6 activity on HDQ119 aggregation (HDQ119 aggregation; 0.5 μM TSA)	ability of DnaJB8 and DnaJB6 to suppress HDQ119 aggregation in presence of HDAC inhibitor (HDQ119 aggregation)	HDQ119 aggregation in cells transfected with the empty vector (HDQ119 aggregation; empty plasmid (FRT TO), HEK-293, different concentrations of TSA)	tubulin acetylation (cellular content of acetylated tubulin) (HDAC-6)	acetylated DNAJB8 peptides (K61, K216, K223) detected by mass spectrometry (DNAJB8)	suppression of poly-Q huntingtin (HDQ119) aggregation by overexpressed DnaJB8 variant (HDQ119 aggregation; Tet on, 24 h after cotransfection, filter trap 10, 2 and 0.4 ug protein/slot)
CC(/C=C/C(=O)NO)=C\[C@@H](C)C(=O)c1ccc(N(C)C)cc1 [TSA, Trichostatin A]	completely annihilated DnaJB8 and DnaJB6 activity	but not after HDAC inhibition with TSA; also recorded: stronly reduced; also recorded: concentration dependent loss of the ability of DnaJB8 and DnaJB6 to reduce HQ119 aggregation	slightly enhanced HDQ119 aggregation	increases the cellular content of acytelated Tubulin; also recorded: equally effective in increasing tubulin acetylation	3 peaks in the TSA-treated samples that were absent in the control sample	
O=C(CCCCCCC(=O)Nc1ccc([C@H]2O[C@@H](CSc3nc(-c4ccccc4)c(-c4ccccc4)o3)C[C@@H](c3ccc(CO)cc3)O2)cc1)NO [Tubacin]		did not result in inhibition of DnaJB8 and DnaJB6 activity		increases the cellular content of acytelated Tubulin; also recorded: equally effective in increasing tubulin acetylation		
B1						substantially suppressed aggregation of poly-Q huntingtin
